US9499511B2, “N-substituted hydroxylamine derivatives with carbon-based leaving groups” (The Johns Hopkins University, priority 2011, dated 2016)
Read-outs that look alike come from different tables or passages of the source. One block for each compound: values may come before it.

Experiments:
[1] = pKa of carbanion byproduct (concentration of b / b-H+ as a function of pH, UV-Vis); format: physicochemical
Description: FIG. 2A and FIG. 2B show a graph plotting the concentration of 4b, 4b-H^+ (FIG. 2A) and 6b, 6b-H^+ (FIG. 2B) as a function of pH. In FIG. 2A, the squares represent 4b-H^+ (λmax=298 nm), and the circles represent carbanion 4b (λmax=261 nm). In FIG. 2B, the squares represent 6b-H^+ (λmax=270 nm), where the last three data points were omitted due to spectral overlap, and the circles represent carbanion 6b (λmax=253 nm).
NMR spectra were obtained on a Bruker Avance 400 MHz FT-NMR spectrometer. All chemical shifts are reported in parts per million (ppm) relative to residual CHCl3 (7.26 ppm for ^1H, 77.23 ppm for ^13C), residual DMSO (2.50 ppm for ^1H, 39.52 for ^13C), or residual H2O (4.8 ppm for ^1H). High-resolution mass spectra were obtained on a VG Analytical VG70SE magnetic sector mass spectrometer operating in fast atom bombardment (FAB) mode. Ultraviolet-Visible (UV-Vis) absorption spectra were obtained using a Hewlett Packard 8453 diode array spectrometer. Phosphate-buffered saline (PBS) solutions (0.1 M) were prepared with 140 mM NaCl and 3 mM KCl, with 100 μM diethylenetriaminepentaacetic acid (DTPA), adjusted to pH 7.4. Buffered solutions (0.1 M) for UV-Vis experiments were prepared from HCl/NaCl (pH 1.7), AcOH/AcONa (pH 3.0, 3.5, 4.0, 4.5, 5.0, 5.5), or NaPO3H2/Na2PO3H (pH 6.0, 6.5, 7.0, 8.0, 9.0, 9.5, 9.8, 10.0, 10.5, 10.6).

[2] = N2O headspace analysis (GC) of HNO production, relative to Angeli's salt; format: physicochemical
Description: Nitrous oxide is produced via the dimerization and dehydration of HNO, and is the most common marker for HNO production (Fukuto, J. M. et al., Chem. Res. Toxicol. 2005, 18, 790-801).
Gas chromatography was performed on a Varian CP-3800 instrument equipped with a 1041 manual injector, electron capture detector, and a 25 m 5 Å molecular sieve capillary column. Grade 5.0 nitrogen was used as both the carrier (8 mL/min) and the make-up (22 mL/min) gas. The injector oven and the detector oven were kept at 200° C. and 300° C., respectively. All nitrous oxide analyses were performed with the column oven held constant at 150° C. All gas injections were made using a 100 μL gastight syringe with a sample-lock. Samples were prepared in 15 mL amber headspace vials with volumes pre-measured for sample uniformity (actual vial volume ranges from 15.19-15.20 mL). Vials were charged with 5 mL of PBS buffer containing DTPA, purged with argon, and sealed with a rubber septum. The vials were equilibrated for at least 10 minutes at 37° C. in a dry block heater. A 10 mM stock solution of Angeli's salt (AS) was prepared in 10 mM sodium hydroxide, and HNO donors 1a-4a, 6a (10 mM) were prepared in acetonitrile or methanol and used immediately after preparation. From these stock solutions, 50 μL was introduced into individual thermally-equilibrated headspace vials using a gastight syringe, yielding final substrate concentrations of 0.1 mM. Substrates were then incubated long enough to ensure complete decomposition and equilibration of N2O with the headspace. The headspace (60 μL) was then sampled and injected five successive times using a gastight syringe with a sample lock. This was repeated for n≧3 vials per donor. The nitrous oxide yield was averaged and reported relative to the standard, Angeli's salt. For chemical trapping of HNO, glutathione (100 μL of 10 mM in PBS) was added prior to HNO donor addition to give a final glutathione concentration of 0.2 mM, and headspace sampling for N2O was analogously performed as stated above.

[3] = Decomposition kinetics monitored by UV-Vis spectroscopy; format: physicochemical
Description: NMR spectra were obtained on a Bruker Avance 400 MHz FT-NMR spectrometer. […] High-resolution mass spectra were obtained on a VG Analytical VG70SE magnetic sector mass spectrometer operating in fast atom bombardment (FAB) mode. […] Phosphate-buffered saline (PBS) solutions (0.1 M) were prepared with 140 mM NaCl and 3 mM KCl, with 100 μM diethylenetriaminepentaacetic acid (DTPA), adjusted to pH 7.4.

[4] = test system: Sprague-Dawley rats; assay: Acute cardiovascular effects, pressure-volume (PV) loop analysis in anesthetized rats; format: in vivo, rat; conditions: IV infusion 100 μg/kg/min, 5 rats
Description: The acute cardiovascular effects of compounds 4a and 6a, when administered intravenously to Sprague-Dawley rats at an infusion rate of 100 μg/kg/min, were examined by means of pressure-volume (PV) curve (loops) analysis. PV families/relationships were generated via pre-load variation and hemodynamic indices were compared to baseline values. Each test article was administered to 5 rats.
Rats were intraperitoneally (IP) anesthetized to effect with pentobarbital (˜50 mg/kg), shaved and positioned in dorsal recumbence, endotracheally intubated and ventilated […], ˜2.5 mL tidal volume with 95% O2/5% CO2) with an adjustable small animal ventilator (Harvard Apparatus). Anesthesia was maintained with a continuous pentobarbital infusion (to effect, ˜3 to 5 mg/kg/h, IV) until completion of the experiment via an indwelling catheter placed in a femoral vein. Subsequently, transthoracic needle electrodes forming a single-lead ECG were placed. For LV mechano-energetic evaluation, the right carotid artery was isolated, dissected free from the surrounding tissue, and cannulated with a 2F high-fidelity conductance/micromanometer catheter (Millar Instruments). This catheter was advanced retrograde across the aortic valve and into the LV chamber in order to simultaneously determine left-ventricular pressure and volume (via conductivity). […] Meanwhile, in order to record arterial pressures, a 2F high-fidelity micromanometer catheter (Millar Instruments) was inserted into a femoral artery and advanced towards the abdominal aorta. Finally, an in-dwelling catheter was placed into the jugular vein for administration of test article.
Following collection of baseline hemodynamic data, infusion of test article was initiated at an infusion rate of 100 μg/kg/min; at 10 μL/min. Pressure-volume analyses were performed again approximately 30 min and 45 min after the initiation of the dose.
The resulting left-ventricular pressure and volume data was analyzed offline (IOX/ECG Auto; EMKA Technologies) in order to generate relationships representing the contractile and energetic state of the myocardium. Systolic (SAP), diastolic (DAP), and mean (MAP) arterial pressures were collected. Left-ventricular mechanical and/or geometrical indices were obtained from the pressure (ESP, EDP, dP/dt max/min, time-constant of relaxation—tau [based on mono-exponential decay with non-zero asymptote]) and volume (ESV, EDV, SV) signal. In addition, the following measurements were derived from left-ventricular pressure-volume data (PV loops) generated during brief periods of preload reduction: • Pressure volume area (PVA) and stroke work (SW). • End-systolic (ESPVR) and end-diastolic (EDPVR) pressure volume relationships. • End systolic pressure and stroke volume relationship (Arterial Elastance, Ea).
Data are presented as means with standard errors (mean±SEM) in Table 6.

[5] = Decomposition kinetics monitored by UV-Vis spectroscopy; format: physicochemical; conditions: PBS, pH 7.4, Condition A: pH 7.4, 37° C., 0.1M PBS, 100 μL DTPA, air (UV/Vis)

pKa of byproduct [1]: ca. 4.2
Compound: 5-(acetyl-O-methoxyoxime)-N,N-dimethylbarbituric acid [Compound 4b]

half-life ([3]; AcOH/AcONa buffer, pH 4, pH 4.0, room temperature, read-out: half-life (converted)): ~1500 min
half-life ([3]; PBS, pH 7.4, footnote c not given, pH 7.4, 37° C., read-out: t1/2): 9.5 min
half-life ([3]; PBS, pH 7.4, pH 7.4 and 37° C., read-out: half-life (converted)): ~10 min
pH near which the decomposition rate sharply increases ([3]; decomposition rate as a function of pH at 25° C., UV-Vis): ~10
half-life [5]: 9.5 min
Compound: CO/N=C(\C)C1(NO)C(=O)N(c2ccccc2)N=C1C (stereo not shown) [Compound 6a, 4-(N-hydroxylamine)-4-(acetyl-O-methoxyoxime)-N-phenyl-5-methyl-pyrazolone]
HNO / N2O production (in words) ([2]; decomposition at pH 7.4): efficiently produces HNO
% HNO ([2]; donor 0.1 mM, 37° C., PBS pH 7.4, yield relative to Angeli's salt by N2O headspace analysis, SEM ±5%, n = 3): 110%
Mean Blood Pressure ([4]; baseline 124 (4a) / 138 (6a)): 111 mmHg
Stroke Volume ([4]; mean, baseline 1 (4a) / 2.2 (6a)): 2.4 relative volume units
End Diastolic Pressure Volume Relationship ([4]; mean, baseline 1.7 (4a) / 1.8 (6a)): 1.5
End Diastolic Pressure ([4]; mean, baseline 4.7 (4a) / 4.4 (6a)): 3.6 mmHg
Tau ([4]; mean, baseline 8.5 (4a) / 8.7 (6a)): 8.6 ms
Arterial Elastance ([4]; mean, baseline 9.2 (4a) / 7.4 (6a)): 5.7
End Diastolic Volume ([4]; mean, baseline 14.6 (4a) / 19.2 (6a)): 20 relative volume units
End Systolic Pressure Volume Relationship ([4]; mean, baseline 28.1 (4a) / 23.7 (6a)): 31
Pre-Load Recruitable Stroke Work ([4]; mean, baseline 37.6 (4a) / 42.8 (6a)): 58.2
Diastolic Blood Pressure ([4]; mean, baseline 109 (4a) / 121 (6a)): 97 mmHg
Stroke Work ([4]; mean, baseline 112 (4a) / 227 (6a)): 185 relative volume units × mmHg
End Systolic Pressure ([4]; mean, baseline 134 (4a) / 141 (6a)): 113 mmHg
Systolic Blood Pressure ([4]; mean, baseline 147 (4a) / 160 (6a)): 130 mmHg
Pressure Volume Area ([4]; mean, baseline 343 (4a) / 590 (6a)): 318
Heart Rate ([4]; mean, baseline 365 (4a) / 340 (6a)): 332 bp, m
Left Ventricular +dP/dt ([4]; mean, baseline 6392 (4a) / 7689 (6a)): 6044 mmHg/s
Left Ventricular −dP/dt ([4]; mean, baseline −7585 (4a) / −8257 (6a)): −6549 mmHg/s
